In the test the test system is Mycobacterium tuberculosis variant bovis. Nature of the test: Antibacterial activity against Mycobacterium bovis BCG assessed as inhibition of bacterial growth incubated for 15 days by REMA method. The class given is functional. The settings on record: 360 h, time 15 day.

What is called MIC99 is the lowest concentration that inhibits either 99% of growth or 99% of the strains tested, depending on the study.

Each structure is given as a SMILES string. ≈ marks a conversion by molar mass, not a printed value.

For `N#Cc1cc(OCCOc2ccccc2)cc(-c2ccc(C(=O)O)o2)c1`, the MIC99 came to 63 µM (≈ 22 µg/mL).

The values are drawn from ChEMBL document CHEMBL5365393, “Comprehensive coverage on anti-mycobacterial endeavour reported during 2022” (Eur J Med Chem, 2023).
